Test results taken from patent US4349545A, “Novel erythromycin a derivatives” (Roussel Uclaf, priority 1980, dated 1982).
In brackets after ≈: the same amount, converted by molar mass.

Key:
[1] = system: Streptococcus faecalis 5432; assay: serial dilution liquid medium MIC, Streptococcus faecalis 5432; assay type: cell-based; details: Enterococcus faecalis, 24 hours at 37° C., read-out: minimum inhibiting concentration (MIC)
Procedure: (§1) The method was a serial dilution of liquid medium test wherein a series of tubes were prepared containing the same amount of sterile nutritive medium and increasing amounts of the test product was distributed in each tube. The tubes were then seeded with a bacterial strain and incubated for 24 hours in an oven at 37° C. The degree of inhibition was determined by transillumination to determine the minimum inhibiting concentration (MIC) express in μg/ml and the results are reported in the following Tables.

[2] = system: Staphylococcus aureus exp. n° 54 146; assay: serial dilution liquid medium MIC, Staphylococcus aureus exp. n° 54 146; assay type: cell-based; details: Staphylococcus aureus exp. 54 146; 24 hours at 37° C.; read-out: minimum inhibiting concentration (MIC)
Procedure: as §1

[3] = system: Staphylococcus aureus No. 54,146; assay: In vivo activity in mice experimentally infected with Staphylococcus aureus No. 54,146; details: groups of 10 mice
Procedure: The test was effected with the compounds of the invention and erythromycin as a reference on groups of 10 mice weighing about 21 g experimentally infected with Staphylococcus aureus No. 54,146 by intraperitoneal administration of 0.5 ml of a 22 hour culture of the said organism in bouillon with a pH of 7 diluted to 1/6 with physiological water. The test compounds were orally administrated to the mice 1,5 and 24 hours after the infection and the mortality on the 8th day was determined.

[4] = system: Streptococcus pyogenes A 561; assay: serial dilution liquid medium MIC, Streptococcus pyogenes A 561; assay type: cell-based; details: A561, 24 hours at 37° C., read-out: minimum inhibiting concentration (MIC)
Procedure: as §1

[5] = system: Streptococcus faecalis 5435; assay: serial dilution liquid medium MIC, Streptococcus faecalis 5435; assay type: cell-based; details: Enterococcus faecalis, 24 hours at 37° C., read-out: minimum inhibiting concentration (MIC)
Procedure: as §1

[6] = system: Staphylococcus aureus UC 1128; assay: serial dilution liquid medium MIC, Staphylococcus aureus UC 1128 pen-resistant; assay type: cell-based; details: UC1128; Staphylococcus aureus UC 1128 pen-resistant; 24 hours at 37° C.; read-out: minimum inhibiting concentration (MIC)
Procedure: as §1

[7] = system: Staphylococcus aureus 1061; assay: serial dilution liquid medium MIC, Staphylococcus aureus 1061 pen-sensibles; assay type: cell-based; details: 24 hours at 37° C., read-out: minimum inhibiting concentration (MIC)
Procedure: as §1

[8] = system: Streptococcus faecalis 99 F 74; assay: serial dilution liquid medium MIC, Streptococcus faecalis 99 F 74; assay type: cell-based; details: Enterococcus faecalis, 99F74, 24 hours at 37° C., read-out: minimum inhibiting concentration (MIC)
Procedure: as §1

[9] = dose 0,5mg oral, 1,5 and 24 hours after infection
[10] = dose 0,25mg oral, 1,5 and 24 hours after infection
[11] = dose 0,75mg oral, 1,5 and 24 hours after infection

Compound	MIC [1]	MIC [2]	MIC [4]	MIC [5]	MIC [6]	MIC [7]	MIC [8]	No. of mice living on the 8th day [3, 9]	No. of mice living on the 8th day [3, 10]	No. of mice living on the 8th day [3, 11]	No. of mice living on the 8th day ([3]; dose 1mg oral, 1,5 and 24 hours after infection)
CC[C@H]1OC(=O)[C@H](C)[C@@H](O[C@H]2C[C@@](C)(OC)[C@@H](O)[C@H](C)O2)[C@H](C)[C@@H](O[C@@H]2O[C@H](C)C[C@H](N(C)C)[C@H]2O)[C@](C)(O)C[C@@H](C)C(=NOCC(OC)OC)[C@H](C)[C@@H](O)[C@]1(C)O [Example 29, 9-[0-(2,2-dimethoxyethyl)-oxime] of erythromycin]	0.4 mg/L (≈ 0.478 µM)	0.4 mg/L (≈ 0.478 µM)	0.1 mg/L (≈ 0.119 µM)	1 mg/L (≈ 1.19 µM)	1 mg/L (≈ 1.19 µM)	0.4 mg/L (≈ 0.478 µM)	0.2 mg/L (≈ 0.239 µM)	8 mice	2 mice	9 mice	10 mice
CC[C@H]1OC(=O)[C@H](C)[C@@H](O[C@H]2C[C@@](C)(OC)[C@@H](O)[C@H](C)O2)[C@H](C)[C@@H](O[C@@H]2O[C@H](C)C[C@H](N(C)C)[C@H]2O)[C@](C)(O)C[C@@H](C)C(=NOCCN2CCCCC2)[C@H](C)[C@@H](O)[C@]1(C)O [Example 34, 9-[O-(2{-piperidin-1-yl}-ethyl)-oxime] of erythromycin]	0.1 mg/L (≈ 0.116 µM)	0.6 mg/L (≈ 0.698 µM)	≤ 0.01 mg/L	0.2 mg/L (≈ 0.233 µM)	0.6 mg/L (≈ 0.698 µM)	0.4 mg/L (≈ 0.465 µM)	0.05 mg/L (≈ 0.0581 µM)				
CC[C@H]1OC(=O)[C@H](C)[C@@H](O[C@H]2C[C@@](C)(OC)[C@@H](O)[C@H](C)O2)[C@H](C)[C@@H](O[C@@H]2O[C@H](C)C[C@H](N(C)C)[C@H]2O)[C@](C)(O)C[C@@H](C)C(=NOCCNC(C)C)[C@H](C)[C@@H](O)[C@]1(C)O [Example 39, 9-[O-(2-isopropylamino)-oxime] of erythromycin]	0.05 mg/L (≈ 0.0599 µM)	0.4 mg/L (≈ 0.48 µM)	0.01 mg/L (≈ 0.012 µM)	0.1 mg/L (≈ 0.12 µM)	0.6 mg/L (≈ 0.719 µM)	0.3 mg/L (≈ 0.36 µM)	≤ 0.02 mg/L				
CC[C@H]1OC(=O)[C@H](C)[C@@H](O[C@H]2C[C@@](C)(OC)[C@@H](O)[C@H](C)O2)[C@H](C)[C@@H](O[C@@H]2O[C@H](C)C[C@H](N(C)C)[C@H]2O)[C@](C)(O)C[C@@H](C)C(=NOCCN2CCCC2)[C@H](C)[C@@H](O)[C@]1(C)O [Example 32, 9-[0-(2-{pyrrolidin-1-yl}-ethyl)-oxime] of erythromycin]	0.05 mg/L (≈ 0.0591 µM)	0.6 mg/L (≈ 0.709 µM)	≤ 0.01 mg/L	0.2 mg/L (≈ 0.236 µM)	1 mg/L (≈ 1.18 µM)	0.4 mg/L (≈ 0.473 µM)	0.1 mg/L (≈ 0.118 µM)				
CC[C@H]1OC(=O)[C@H](C)[C@@H](O[C@H]2C[C@@](C)(OC)[C@@H](O)[C@H](C)O2)[C@H](C)[C@@H](O[C@@H]2O[C@H](C)C[C@H](N(C)C)[C@H]2O)[C@](C)(O)C[C@@H](C)C(=NOCOCCN2CCOCC2)[C@H](C)[C@@H](O)[C@]1(C)O [Example 26, 9-[0-{(2-(morpholin-4-yl)-ethoxy}-methyl)-oxime] of erythromycin]	0.2 mg/L (≈ 0.224 µM)	0.6 mg/L (≈ 0.673 µM)	0.1 mg/L (≈ 0.112 µM)	1 mg/L (≈ 1.12 µM)	0.1 mg/L (≈ 0.112 µM)	0.6 mg/L (≈ 0.673 µM)	0.2 mg/L (≈ 0.224 µM)				
CC[C@H]1OC(=O)[C@H](C)[C@@H](O[C@H]2C[C@@](C)(OC)[C@@H](O)[C@H](C)O2)[C@H](C)[C@@H](O[C@@H]2O[C@H](C)C[C@H](N(C)C)[C@H]2O)[C@](C)(O)C[C@@H](C)C(=NOCCN2CCN(C)CC2)[C@H](C)[C@@H](O)[C@]1(C)O [Example 43, 9-[O-(2-{4-methyl-piperazino-1-yl}-ethyl)-oxime] of erythromycin]	0.2 mg/L (≈ 0.229 µM)	1 mg/L (≈ 1.14 µM)	≤ 0.01 mg/L	0.4 mg/L (≈ 0.457 µM)	2 mg/L (≈ 2.29 µM)	1 mg/L (≈ 1.14 µM)	0.05 mg/L (≈ 0.0571 µM)				
CC[C@H]1OC(=O)[C@H](C)[C@@H](O[C@H]2C[C@@](C)(OC)[C@@H](O)[C@H](C)O2)[C@H](C)[C@@H](O[C@@H]2O[C@H](C)C[C@H](N(C)C)[C@H]2O)[C@](C)(O)C[C@@H](C)C(=NOCC2CO2)[C@H](C)[C@@H](O)[C@]1(C)O (stereo partly drawn) [Example 47, 9-[0-(oxiramylmethyl)-oxime] of erythromycin]	0.2 mg/L (≈ 0.248 µM)	0.4 mg/L (≈ 0.497 µM)	0.05 mg/L (≈ 0.0621 µM)	0.2 mg/L (≈ 0.248 µM)	0.4 mg/L (≈ 0.497 µM)	0.2 mg/L (≈ 0.248 µM)	0.2 mg/L (≈ 0.248 µM)				

Now from value to molecule, other results behind:

MIC [1]	MIC [2]	MIC [4]	MIC [5]	MIC [6]	MIC [7]	MIC [8]	Compound	No. of mice living on the 8th day [3, 9]	No. of mice living on the 8th day [3, 10]	No. of mice living on the 8th day [3, 11]	No. of mice living on the 8th day ([3]; dose 1mg oral, 1,5 and 24 hours after infection)
0.1 mg/L (≈ 0.124 µM)	0.4 mg/L (≈ 0.496 µM)	0.1 mg/L (≈ 0.124 µM)	0.2 mg/L (≈ 0.248 µM)	0.6 mg/L (≈ 0.743 µM)	0.4 mg/L (≈ 0.496 µM)	0.1 mg/L (≈ 0.124 µM)	CCOCON=C1[C@H](C)C[C@@](C)(O)[C@H](O[C@@H]2O[C@H](C)C[C@H](N(C)C)[C@H]2O)[C@@H](C)[C@H](O[C@H]2C[C@@](C)(OC)[C@@H](O)[C@H](C)O2)[C@@H](C)C(=O)O[C@H](CC)[C@@](C)(O)[C@H](O)[C@H]1C [Example 20, 9-[0-(ethoxymethyl)-oxime] of erythromycin]	4 mice	2 mice	10 mice	
0.1 mg/L (≈ 0.126 µM)	0.2 mg/L (≈ 0.252 µM)	0.02 mg/L (≈ 0.0252 µM)	0.2 mg/L (≈ 0.252 µM)	0.4 mg/L (≈ 0.504 µM)	0.1 mg/L (≈ 0.126 µM)	0.1 mg/L (≈ 0.126 µM)	CC[C@H]1OC(=O)[C@H](C)[C@@H](O[C@H]2C[C@@](C)(OC)[C@@H](O)[C@H](C)O2)[C@H](C)[C@@H](O[C@@H]2O[C@H](C)C[C@H](N(C)C)[C@H]2O)[C@](C)(O)C[C@@H](C)C(=NOCOC)[C@H](C)[C@@H](O)[C@]1(C)O [Example 33, 9-[O-(methoxymethyl)-oxime] of erythromycin]	10 mice	7 mice		
0.1 mg/L (≈ 0.119 µM)	0.4 mg/L (≈ 0.478 µM)	0.05 mg/L (≈ 0.0597 µM)	0.6 mg/L (≈ 0.717 µM)	0.6 mg/L (≈ 0.717 µM)	0.4 mg/L (≈ 0.478 µM)	0.1 mg/L (≈ 0.119 µM)	CC[C@H]1OC(=O)[C@H](C)[C@@H](O[C@H]2C[C@@](C)(OC)[C@@H](O)[C@H](C)O2)[C@H](C)[C@@H](O[C@@H]2O[C@H](C)C[C@H](N(C)C)[C@H]2O)[C@](C)(O)C[C@@H](C)C(=NOCCOCCO)[C@H](C)[C@@H](O)[C@]1(C)O [Example 17, 9-[0-(2-{2-hydroxyethoxy}-ethyl)-oxime] of erythromycin]				
0.4 mg/L (≈ 0.505 µM)	1 mg/L (≈ 1.26 µM)	≤ 0.01 mg/L	0.2 mg/L (≈ 0.253 µM)	1 mg/L (≈ 1.26 µM)	0.6 mg/L (≈ 0.758 µM)	0.1 mg/L (≈ 0.126 µM)	CC[C@H]1OC(=O)[C@H](C)[C@@H](O[C@H]2C[C@@](C)(OC)[C@@H](O)[C@H](C)O2)[C@H](C)[C@@H](O[C@@H]2O[C@H](C)C[C@H](N(C)C)[C@H]2O)[C@](C)(O)C[C@@H](C)C(=NOCCN)[C@H](C)[C@@H](O)[C@]1(C)O [Example 45, 9-[O-(2-aminoethyl)-oxime] of erythromycin]				
0.05 mg/L (≈ 0.0588 µM)	0.4 mg/L (≈ 0.471 µM)	≤ 0.01 mg/L	0.2 mg/L (≈ 0.235 µM)	0.6 mg/L (≈ 0.706 µM)	0.4 mg/L (≈ 0.471 µM)	0.05 mg/L (≈ 0.0588 µM)	CC[C@H]1OC(=O)[C@H](C)[C@@H](O[C@H]2C[C@@](C)(OC)[C@@H](O)[C@H](C)O2)[C@H](C)[C@@H](O[C@@H]2O[C@H](C)C[C@H](N(C)C)[C@H]2O)[C@](C)(O)C[C@@H](C)C(=NOCOCCN(C)C)[C@H](C)[C@@H](O)[C@]1(C)O [Example 22, 9-[0-{(2-dimethylaminoethoxy)-methyl}-oxime] of erythromycin]				
